# Experiments:
# Type in all cases: cell-based, human
# [1] = system: IκBα phosphorylation at Ser32; assay: NF-κB signaling, western blot of IκBα phosphorylation in PDAC cell lines; details: BxPC3, Capan1, MiaPaCa2, Panc1, 10 min, 10 nM S100A8, S100A9, S100A8/A9, 50 nM NT-S100A8, 0.02 ng/ml TGFβ1
# Description: (§1) Five million cells were seeded in Petri dishes (ø 10 cm) and cultured for 24 hours in their respective complete media prior to starting the experiments. Cells remained non-stimulated (negative control) or were stimulated with 50 mU insulin (positive control) (Insuman Rapid, Sanofi-Aventis, Deutschland, GmbH) for 10 min; in parallel, experimental cells were stimulated with 50 nM NT-S100A8, 0,02 ng/ml TGFβ1 (ProSpec-Tany TechnoGene), 10 nM S100A8 and 10 nM S100A9 alone or combined for 10 min. Following stimulations, Petri dishes were immediately transferred into an ice bath, and the cells were washed twice with cold PBS, re-suspended in 100 μl of cold lysis buffer [20 mM Tris–HCl, pH 7.5, 150 mM NaCl, 1 mM EDTA, 1% Triton-X 100, 50 mM NaF, 10 mM Na4P2O7,1 mM Na3VO4, and 10% protease inhibitor cocktail (Sigma Aldrich SRL, Milano, Italy)]. Lysates were centrifuged for 10 min at 14,000 rpm at 4°C and, in the supernatants, total proteins were measured using the Bio-Rad protein assay (Bio-Rad Laboratories, Milano, Italy). Each experiment was performed at least in triplicate.
# (§2) For each sample, 40 μg proteins were electrophoresed through 4–12% NuPAGE®NovexBis-Tris SDS–PAGE Gel or 3-8% NuPAGE®NovexTris-Acetate SDS–PAGE Gel (Invitrogen S.R.L., Life Technologies, Monza, Italy) and electrophoretically transferred to Nitrocellulose Membrane (iBlot® Transfer Stack, Invitrogen S.R.L.) by means of the iBlotTMDry Blotting System (Invitrogen S.R.L.). Following incubation for 1 hour in a blocking buffer [5% low fat powder milk re-suspended in PBS-T (PBS with 0.1% Tween-20)], membranes were incubated overnight at 4°C with the primary antibodies [antiphospho IkB-α (Ser^32) (Santa Cruz Biotechnology, Inc., Santa Cruz, CA, USA); anti-phospho-Akt (Ser^473), anti-phospho-Akt (Thr^308), anti-Akt and anti-phospho-S6 Ribosomal Protein (Ser^235/236), anti-cleaved Caspase-3, anti-phospho-Stat3 Tyr^705, anti-β-actin, anti-phospho mTOR (Ser^2448, Ser^2481) (Cell Signaling Technology, Danvers, MA, USA); anti-RAGE (R&D Systems, Minneapolis, MN, USA) ] diluted 1:5000 (β-actin), 1:2000 (mTOR, cleaved Caspase-3, Stat3) or 1:3000 (all the others) in the blocking buffer. The blots, washed three times in PBS-T for 15 min, were incubated with […] anti-rabbit (Cell Signaling Technology) or anti-goat (Sigma Aldrich) secondary antibodies and then washed three times in PBS-T for 15 min and developed with the ECL Advance Western Blot Detection Kit (GE Healthcare Technologies, Milan, Italy).
# [2] = system: mTOR Ser2481, Ser2448 and S6 Ribosomal Protein phosphorylation; assay: mTOR signaling, western blot in PDAC cell lines; details: BxPC3, Capan1, MiaPaCa2, Panc1, 10 min, 10 nM S100A8, S100A9, S100A8/A9, 50 nM NT-S100A8, 0.02 ng/ml TGFβ1
# Description: as §1, §2
# [3] = system: BxPC3 N-Cadherin; assay: N-cadherin immunocytochemistry, BxPC3; details: vs untreated cells
# Description: In order to investigate immunocytochemical reactions, control and stimulated cells were formalin-fixed and paraffin embedded before obtaining […] sections from each cell block. All immunocytochemical staining was performed automatically (Bondt—maX, Menarini, Florence, Italy) with primary antibodies: E-cadherin (DakoCytomation, Glostrup, Denmark) (1:200), N-cadherin (DakoCytomation) (1:100), Twist1 (Novocastra, Newcastle-upon-Tyne, UK)(1:600). Sections were then lightly counterstained with hematoxylin. E-cadherin and N-cadherin immunoreactions were defined as immunoreactions detectable in the membrane while Twist was defined as a positive nuclear staining. At least three independent sets of experiments were performed in each experimental condition.
# [4] = system: Capan1; assay: XTT cell viability assay, Capan1; details: 48 hours, TGFβ1 0.02 ng/ml, NT-S100A8 50 nM, S100A8 10 nM, S100A9 10 nM, alone or combined, at least three independent experiments in quadruplicate
# Description: (§3) BxPC3, Capan1, MiaPaCa2, Panc1 and BxPC3-SMAD4+ cells were seeded (2000 cells per well) in 96-well cell culture plates and cultured in complete media for 24 hours. Media were then replaced with fresh cell culture media in absence (control) or in presence of TGFβ1 (0.02 ng/ml) and NT-S100A8 (50 nM), alone or combined or in absence (control) or in presence of TGFβ1 (0.02 ng/ml), S100A8 (10 nM) and S100A9 (10 nM) alone or combined. Cell growth was assessed after 48 hours using the XTT cell viability test (Roche, Milano, Italy). At least three independent experiements, each made in quadruplicate, were run. The results were expressed as percentage with respect to the median Abs450nm of control cells run in the same experimental set.
# [5] = system: MiaPaCa2; assay: XTT cell viability assay, MiaPaCa2; details: 48 hours, TGFβ1 0.02 ng/ml, NT-S100A8 50 nM, S100A8 10 nM, S100A9 10 nM, alone or combined, at least three independent experiments in quadruplicate
# Description: as §3
substance,measurement,setting,value
"NT-S100A8: 14 N-terminal aminoacid peptide of S100A8, isolated from PDAC tissues (MLTELEKALNSIID; UniProt P05109 1-14, looked up, fragment)",IκBα phosphorylation (Ser32),[1],"reduced IκBα phosphorylation in Capan1, MiaPaCa2 and Panc1, not in BxPC3"
same,mTOR Ser2448 phosphorylation,[2],inducing Ser^2481 and Ser^2448 phosphorylation in all cell lines
same,mTOR Ser2481 phosphorylation,[2],inducing Ser^2481 and Ser^2448 phosphorylation in all cell lines
same,N-Cadherin membranous immunostaining,[3],less marked than in control cells
TGFβ1: transforming growth factor beta 1 (ProSpec-Tany TechnoGene),Capan1 % to Control Mean± SEM,[4],104.31 ± 2.68 % to Control
same,MiaPaCa2 % to Control Mean± SEM,[5],102.11 ± 4.65 % to Control
same,IκBα phosphorylation (Ser32),[1],no significant effects
same,mTOR Ser2448 phosphorylation,[2],inducing Ser^2481 and Ser^2448 phosphorylation in all cell lines
same,mTOR Ser2481 phosphorylation,[2],inducing Ser^2481 and Ser^2448 phosphorylation in all cell lines
same,N-Cadherin membranous immunostaining,[3],less marked than in control cells
S100A8: inflammatory calcium binding protein S100A8 (ProSpec-Tany TechnoGene),Capan1 % to Control Mean± SEM,[4],96.22 ± 2.91 % to Control
same,MiaPaCa2 % to Control Mean± SEM,[5],102.13± 4.93 % to Control
same,IκBα phosphorylation (Ser32),[1],"reduced IκBα phosphorylation in Capan1, MiaPaCa2 and Panc1, not in BxPC3"
same,mTOR Ser2448 phosphorylation,[2],induced mTOR Ser^2448 phosphorylation in all cell lines
same,mTOR Ser2481 phosphorylation,[2],Ser^2481 in BxPC3 and Capan1
same,N-Cadherin membranous immunostaining,[3],less marked than in control cells
"S100A9: inflammatory calcium binding protein S100A9, S100A8 binding partner",Capan1 % to Control Mean± SEM,[4],103.07 ± 2.90 % to Control
same,MiaPaCa2 % to Control Mean± SEM,[5],104.38± 4.09 % to Control
same,IκBα phosphorylation (Ser32),[1],"reduced IκBα phosphorylation in Capan1, MiaPaCa2 and Panc1, not in BxPC3"
same,mTOR Ser2448 phosphorylation,[2],induced mTOR Ser^2448 phosphorylation in all cell lines
same,mTOR Ser2481 phosphorylation,[2],Ser^2481 in BxPC3 and Capan1
same,N-Cadherin membranous immunostaining,[3],less marked than in control cells
